Like-named read-outs stand apart in the source and are kept apart here.
What was measured:
[1] = tested on: HCV replicon in Huh7 cells; assay: HCV replicon cell-based assay (FRET); design: species or system HCV strain 1B; conditions: Hepatitis C virus
From the text: HCV Replicon Cell-based Assay
An HCV replicon whole cell system was established as described by Lohmann V, Korner F, Koch J, Herian U, Theilmann L, Bartenschlager R., Science 285(5424): 110-3 (1999). This system enabled us to evaluate the effects of our HCV Protease compounds on HICV RNA replication. Briefly, using the HCV strain 1B sequence described in the Lohmann paper (Assession number: AJ238799), an HCV cDNA was generated encoding the 5′ internal ribosome entry site (IRES), the neomycin resistance gene, the EMCV (encephalomyocarditis virus)-IRES and the HCV nonstructural proteins, NS3-NS5B, and 3′ non-translated region (NTR). In vitro transcripts of the cDNA were transfected into the human hepatoma cell line, Huh7. […] Resulting cell lines were characterized for positive and negative strand RNA production and protein production over time.
Huh7 cells, constitutively expressing the HCV replicon, were grown in Dulbecco's Modified Eagle Media (DMEM) containing 10% Fetal calf serum (FCS) and 1 mg/ml G418 (Gibco-BRL). Cells were seeded the night before (1.5×10^4 cells/well) in 96-well tissue-culture sterile plates. Compound and no compound controls were prepared in DMEM containing 4% FCS, 1:100 Penicillin/Streptomysin, 1:100 L-glutamine and 5% DMSO in the dilution plate (0.5% DMSO final concentration in the assay). Compound/DMSO mixes were added to the cells and incubated for 4 days at 37° C. After 4 days, plates were rinsed thoroughly with Phosphate-Buffered Saline (PBS) (3 times 150 μl). The cells were lysed with 25 μl of a lysis assay reagent containing the FRET peptide (RET S1, as described for the in vitro enzyme assay). The lysis assay reagent was made from 5× cell Luciferase cell culture lysis reagent(Promega #E153A) diluted to 1× with distilled water, NaCl added to 150 mM final, the FRET peptide diluted to 10 μM final from a 2 mM stock in 100% DMSO. The plate was then placed into the Cytofluor 4000 instrument which had been set to 340 nm excitation/490 emission, automatic mode for 21 cycles and the plate read in a kinetic mode. EC50 determinations were carried out as described for the IC50 determinations.

[2] = molecular target: T1, HCV NS3/4A protease complex (J4L6S strain) (Hepatitis C virus genotype 1b, UniProt O92972, C1454S/C1711G); assay: Recombinant HCV NS3/4A protease complex FRET peptide assay, J4L6S strain; type: biochemical, HCV genotype 1b
T1 construct: HCV NS3/4A protease complex (amino acids 1027 to 1711); inferred from pET21b vector and Ni-NTA purification; made in house; host or cells: Escherichia coli BL21 (DE3), pET21b
From the text: Recombinant HCV NS3/4A Protease Complex FRET Peptide Assay
The purpose of this in vitro assay was to measure the inhibition of HCV NS3 protease complexes, derived from the BMS, H77C or J4l6S strains, as described below, by compounds of the present invention. This assay provides an indication of how effective compounds of the present invention would be in inhibiting HCV proteolytic activity.
Serum from an HCV-infected patient was obtained from Dr. T. Wright, San Francisco Hospital. An engineered full-length cDNA template of the HCV genome (BMS strain) was constructed from DNA fragments obtained by reverse transcription-PCR (RT-PCR) of serum RNA and using primers selected on the basis of homology between other genotype la strains. From the determination of the entire genome sequence, a genotype la was assigned to the HCV isolate according to the classification of Simmonds et al. (See P Simmonds, K A Rose, S Graham, S W Chan, F McOmish, B C Dow, E A Follett, P L Yap and H Marsden, J. Clin. Microbiol., 31(6), 1493-1503 (1993)). […]

T1 sequence (O92972 1658-1711, stated change not applied): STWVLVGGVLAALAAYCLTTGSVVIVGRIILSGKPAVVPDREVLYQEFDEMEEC
T1 sequence (O92972 1027-1711, looked up, stated change not applied): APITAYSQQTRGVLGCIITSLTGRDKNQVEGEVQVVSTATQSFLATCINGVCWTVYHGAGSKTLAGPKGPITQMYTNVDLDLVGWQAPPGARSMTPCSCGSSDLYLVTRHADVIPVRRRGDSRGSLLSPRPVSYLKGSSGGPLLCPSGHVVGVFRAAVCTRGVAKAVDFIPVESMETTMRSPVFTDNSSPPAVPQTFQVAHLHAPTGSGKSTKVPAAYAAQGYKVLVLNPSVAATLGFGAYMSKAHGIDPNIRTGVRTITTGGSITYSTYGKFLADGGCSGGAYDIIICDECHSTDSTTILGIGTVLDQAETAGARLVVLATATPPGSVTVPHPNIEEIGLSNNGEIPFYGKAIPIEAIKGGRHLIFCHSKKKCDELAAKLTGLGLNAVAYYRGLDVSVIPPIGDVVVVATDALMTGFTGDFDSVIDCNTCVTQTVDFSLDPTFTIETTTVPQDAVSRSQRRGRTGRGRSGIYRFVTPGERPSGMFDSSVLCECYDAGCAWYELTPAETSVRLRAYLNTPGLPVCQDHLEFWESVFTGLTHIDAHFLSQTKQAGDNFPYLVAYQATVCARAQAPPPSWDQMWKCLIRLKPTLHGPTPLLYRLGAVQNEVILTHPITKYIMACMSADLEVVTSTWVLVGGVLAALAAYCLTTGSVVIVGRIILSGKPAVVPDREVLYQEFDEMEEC

## C=CC1C[C@]1(NC(=O)[C@@H]1C[C@@H](Oc2cc(-c3ccccc3)nc3cc(OC)ccc23)CN1C(=O)[C@@H](NC(=O)OC(C)(C)C)C(C)(C)C)C(=O)NS(=O)(=O)c1cccs1 (stereo in doubt) [Compound 1, (1-{4-(7-Methoxy-2-phenylquinolin-4-yloxy)-2-[1-(thiophene-2-sulfonylaminocarbonyl)-2-vinyl-cyclopropylcarbamoyl]-pyrrolidine-1-carbonyl}-2,2-dimethylpropyl)carbamic acid tert-butyl ester]
[1]; Huh-7, 96 h, Huh7 cells, 4 days, read-out: EC50 value in the replicon assay
  EC50: 55 nM
[1]; Huh-7, replicon, activity range, read-out: EC50 a, b, c (Activity Table)
  EC50: < 100 nM
[2]
  IC50: 1.6 nM
